According to US20250340561A1, “QUINAZOLINE COMPOUND FOR INDUCING DEGRADATION OF G12D MUTANT KRAS PROTEIN” (Astellas Pharma Inc., priority 2021, published 2025):

tested on: human KRAS G12D mutant-positive PK-59 pancreatic cancer cell line-derived xenograft; assay: Test Example 4: anti-tumor activity in PK-59 xenograft mice; assay type: in vivo; conditions: PK-59 xenograft nude mice, 10 mg/kg into tail vein, twice with an interval of once a week
Experimental: Test Example 4: Evaluation of Anti-Tumor Activity in Human KRAS G12D Mutant-Positive PK-59 Pancreatic Cancer Cell Line-Derived Xenograft Mice
PK-59 cells (RTKEN BRC, RCB 1901) were cultured using a RPMI 1640 medium containing 10% fetal bovine serum in the presence of 5% CO2 at 37° C. The PK-59 cells were collected and suspended in PBS, and after adding an equal amount of Matrigel (from Becton, Dickinson and Company), the cell suspension prepared at 1.0×10^7 to 2.0×10^7 cells/mL was subcutaneously inoculated in a volume of 100 μL in 4- to 6-week-old male nude mice (CAnN.Cg-Foxn1^nu/CrlCrlj (nu/nu), from Charles River Laboratories Japan). About two weeks after the inoculation, the mice were divided into groups so that all the groups had approximately the same tumor volume and body weight, and administration of test compounds was started on the next day. The study was conducted for 5 mice each of a vehicle group and test compound administration groups. The compounds of Example 8, Example 48 and Example 70 were dissolved in a solvent containing ethanol (from FUJIFILM Wako Pure Chemical Corporation), a 5% glucose solution (from Otsuka Pharmaceutical), 1M hydrochloric acid (from Kanto Chemical Co., Inc.), an aqueous 50% (2-hydroxypropyl)-β-cyclodextrin (HP-βCD) solution (from ROQUETTE), HCO-40 (from Nikko Chemicals Co., Ltd.) and an aqueous 1M sodium hydroxide solution (from Kanto Chemical Co., Inc.) at a liquid amount ratio of 4:84.4:1.1:1:9:0.5. The compounds of Example 22 and Example 26 were dissolved in a solvent containing propylene glycol (from FUJIFILM Wako Pure Chemical Corporation), Tween80 (from Nacalai Tesque) and Otsuka normal saline (from Otsuka Pharmaceutical) at a liquid amount ratio of 6.7:3.3:90. The compound of Example 39 was dissolved in a solvent containing propylene glycol, ethanol, an aqueous 50% HP-PCD solution, HCO-40 and a 5% glucose solution at a liquid amount ratio of 10:8:10:10:62. The test compounds dissolved in the respective solvents or the solvents were administered into tail vein. The administration was performed twice with an interval of once a week. The tumor sizes and the body weights were measured twice a week. The tumor volumes were calculated using the following equation.
[Tumor volume (mm^3)]=[Major axis of tumor (mm)]×[Minor axis of tumor (mm)]^2×0.5
The tumor growth inhibitions (%) by the test compounds were calculated with the tumor volumes of the test compound administration groups on the previous day of the start of the administration taken as 100% inhibition and the tumor volumes of the vehicle groups two weeks after the initial administration taken as 0% inhibition. In addition, when the tumor volume of a test compound administration group was smaller than the tumor volume on the previous day of the start of the administration, the tumor regression (%) by the test compound was calculated with the tumor volume on the previous day of the start of the administration taken as 0% regression and with the tumor volume 0 taken as 100% regression. The molecular weights of the test compounds were calculated as the molecular weights of the dihydrochloride for Example No. 22 and the free forms forming no salt for the remaining Example Nos. The results for some test compounds of the formula (I) are shown in Table 5.

SMILES	Anti-Tumor Activity Two Weeks After Initial Administration (tumor growth inhibition) [% inhibition]	Anti-Tumor Activity Two Weeks After Initial Administration (tumor regression) [% regression]
Cc1ncsc1-c1ccc([C@H](CO)NC(=O)[C@@H]2C[C@@H](O)CN2C(=O)[C@H](C(C)C)n2cc(-c3ccc(COc4c(-c5c(C)c(F)cc6[nH]ncc56)c(C5CC5)cc5c(N6C[C@@H]7C[C@H]6CN7)nc(OC6CCOCC6)nc45)cc3)nn2)cc1 [Example 8, (4R)-1-[(2S)-2-(4-{4-[({6-cyclopropyl-4-[(1S,4S)-2,5-diazabicyclo[2.2.1]heptan-2-yl]-7-(6-fluoro-5-methyl-1H-indazol-4-yl)-2-[(oxan-4-yl)oxy]quinazolin-8-yl}oxy)methyl]phenyl}-1H-1,2,3-triazol-1-yl)-3-methylbutanoyl]-4-hydroxy-N-{(1R)-2-hydroxy-1-[4-(4-methyl-1,3-thiazol-5-yl)phenyl]ethyl}-L-prolinamide]	98	
Cc1c(F)cc2[nH]ncc2c1-c1c(C2CC2)cc2c(N3C[C@@H]4C[C@H]3CN4)nc(OC3CCOCC3)nc2c1OCc1ccc(-c2cn([C@H](C(=O)N3C[C@H](O)C[C@H]3C(=O)N[C@@H](CO)c3ccc(-c4ccnn4C)cc3)C(C)C)nn2)cc1 [Example 22]	93	
CCn1nccc1-c1ccc([C@H](CO)NC(=O)[C@@H]2C[C@@H](O)CN2C(=O)[C@H](C(C)C)n2cc(-c3ccc(COc4c(-c5c(C)c(F)cc6[nH]ncc56)c(C5CC5)cc5c(N6C[C@@H]7C[C@H]6CN7)nc(OC6CCOCC6)nc45)cc3)nn2)cc1 [Example 26]	94	
CO[C@H](C)[C@@H](C)Oc1nc(N2C[C@@H]3C[C@H]2CN3)c2cc(C3CC3)c(-c3c(C)c(F)cc4[nH]ncc34)c(OCc3ccc(-c4cn([C@H](C(=O)N5C[C@H](O)C[C@H]5C(=O)N[C@@H](CO)c5ccc(-c6scnc6C)cc5)C(C)C)nn4)cc3)c2n1 [Example 39]		13
CO[C@@H](C)COc1nc(N2C[C@@H]3C[C@H]2CN3)c2cc(C3CC3)c(-c3c(C)c(F)cc4[nH]ncc34)c(OCc3ccc(-c4cn([C@H](C(=O)N5C[C@H](O)C[C@H]5C(=O)N[C@@H](CO)c5ccc(-c6scnc6C)cc5)C(C)C)nn4)cc3)c2n1 [Example 48]		32
CCn1nccc1-c1ccc([C@H](CO)NC(=O)[C@@H]2C[C@@H](O)CN2C(=O)[C@H](C(C)C)n2cc(-c3ccc(COc4c(-c5c(C)c(F)cc6[nH]ncc56)c(C5CC5)cc5c(N6C[C@@H]7C[C@H]6CN7)nc(OC[C@H](C)OC)nc45)cc3)nn2)cc1 [Example 70]		42
